Experiments:
[1] = target: T1, Purine nucleoside phosphorylase (Bos taurus, UniProt P55859); assay: Inhibitory concentration against calf spleen purine nucleoside phosphorylase in the presence of 50 mM (pi) […]
T1 sequence (P55859 whole entry): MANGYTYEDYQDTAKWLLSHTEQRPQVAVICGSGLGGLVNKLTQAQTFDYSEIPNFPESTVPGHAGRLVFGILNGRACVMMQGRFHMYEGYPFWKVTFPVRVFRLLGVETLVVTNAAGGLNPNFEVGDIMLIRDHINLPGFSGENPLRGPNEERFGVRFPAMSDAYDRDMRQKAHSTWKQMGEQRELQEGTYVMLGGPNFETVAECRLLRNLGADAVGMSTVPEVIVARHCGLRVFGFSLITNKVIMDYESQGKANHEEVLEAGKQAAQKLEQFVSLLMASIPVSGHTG

[2] = target: T2, Purine nucleoside phosphorylase (Homo sapiens, UniProt P00491); assay: Inhibitory concentration against human erythrocytic purine nucleoside phosphorylase in the presence of 50 mM (pi) […]
T2 sequence (P00491 whole entry): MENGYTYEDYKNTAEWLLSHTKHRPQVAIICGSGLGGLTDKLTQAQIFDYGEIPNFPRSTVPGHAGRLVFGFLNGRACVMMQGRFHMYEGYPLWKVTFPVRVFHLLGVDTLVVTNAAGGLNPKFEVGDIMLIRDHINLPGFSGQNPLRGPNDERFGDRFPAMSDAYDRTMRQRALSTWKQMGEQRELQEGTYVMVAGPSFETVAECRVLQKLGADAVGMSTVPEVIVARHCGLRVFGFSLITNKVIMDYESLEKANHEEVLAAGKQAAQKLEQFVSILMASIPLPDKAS

[3] = target: T2, Purine nucleoside phosphorylase; assay: Tested for its inhibitory activity against human erythrocytic purine nucleoside phosphorylase
[4] = target: T1, Purine nucleoside phosphorylase; assay: Inhibitory activity against calf spleen purine nucleoside phosphorylase in the presence of 1 mM (pi) […]
[5] = target: T2, Purine nucleoside phosphorylase; assay: Inhibitory activity against human erythrocytic purine nucleoside phosphorylase in the presence of 1 mM (pi) […]

Compound | IC50 [1] [nM] | IC50 [2] [nM] | Ki [3] [nM] | other results
Nc1nc(O)c2ncn(Cc3ccccc3CC(F)(F)P(=O)(O)O)c2n1 | 200 |  |  | 
Nc1nc(O)c2ncn(Cc3ccccc3C(F)C(F)(F)P(=O)(O)O)c2n1 (stereo not given) | 100 | 85 |  | 
Nc1nc2c(ncn2CCCCC(F)(F)P(=O)(O)O)c(=O)[nH]1 |  |  | 18 | 
Nc1nc(O)c2nc(N)n(Cc3ccccc3)c2n1 |  |  | 200 | 
Nc1nc(O)c2ncn(Cc3ccccc3/C=C(\F)P(=O)(O)O)c2n1 | 60 |  |  | Ki [4]: 0.8 nM
Nc1nc(O)c2ncn(Cc3ccccc3/C=C/P(=O)(O)O)c2n1 | 85 | 155 |  | Ki [5]: 3.2 nM
